# US20240147987A1, “METHOD FOR IMPROVING THE EFFECT OF THE OOCYTE CRYOPRESERVATION BY REDUCING THE MITOCHONDRIAL TEMPERATURE” (China Agricultural University, priority 2022, published 2024)
# Several values for one entry are separate records, joined by “and”; a condition that tells them apart may be missing. Equal entries are not always repeated.
# Columns and labels:
# [1] = system: vitrified porcine oocytes; assay: Survival rate detection of vitrified oocytes after thawing (FDA staining); type: cell-based; settings: freezing group 71.85%
# Description: The room temperature was adjusted to 25±1° C. so that the test apparatus and reagents were fully balanced, the experiment was carried out on a 37° C. thermostat, the oocytes were transferred into 20% EG solution for 3 min, and then transferred into the vitrification solution EDFS40 for 30-40 s, the oocytes were then placed on the cryocarrier Cryotop. […] When thawing the oocytes, the Cryotop was taken out from liquid nitrogen, and the oocytes were immediately immersed in PBS containing 1M sucrose (containing 20% FBS) on a thermostatic table (37° C.) for 1 min, and then transferred to PBS containing 0.5M and 0.25M sucrose (containing 20% FBS) for 3 min, and then placed in PBS containing 20% FBS for recovery for 5 min, and then washed three times with mature medium and placed in mature medium for recovery for 2 hours. • (1) Survival Rate Detection of Oocytes after Thawing
# The survival rate of oocytes was detected by FDA (fluorescein diacetate) staining. The collected oocytes were incubated in TL-HEPES-0.3% BSA solution containing 2.5 μg/mL FDA for 1 min and then washed three times with TL-HEPES-0.3% BSA solution, the oocytes were placed on a petri dish and observed using a fluorescence microscope, the oocytes with green fluorescence were considered to be alive.
# porcine oocytes [2] = assay: Parthenogenetic activation of oocytes (cleavage and blastocyst development)
# Description: After the first polar body was extruded, mature oocytes with uniform cytoplasm were selected for parthenogenetic activation. The oocytes were washed three times with a pre-heated electro-activation solution, and then the oocytes were placed between electrodes filled with the activation solution, the electro-activation solution was 0.3 M mannitol, 0.05 mM CaCl2, 0.1 mM MgCl2, and 0.4% (m/v) bovine serum albumin dissolved in water. An electric fusion meter (Fujihira Industry Co. Ltd, Tokyo, Japan) was used for electrical activation, the electric field intensity was 65 V/mm, the DC pulse duration was 80 μs, and the number of pulses was 1. The activated oocytes were cultured in PZM-3 containing 5 μg/mL cytochalasin B and 10 μg/mL cycloheximide at 38.5° C., 5% CO2 for 4 h. Then the oocytes were washed and cultured in PZM-3 (day 0). The number of cleavage embryos was counted on day 2 and blastocyst formation was recorded on day 7.
# porcine oocytes [3] = assay: Oocyte mitochondrial temperature detection (Mito Thermo Yellow probe fluorescence); type: cell-based
# Description: (§1) 100 nM Mito Thermo Yellow dye was added in TL-HEPES-0.3% BSA solution and preheated for 15 min at 37° C. in an incubator containing 5% CO2, the oocytes were moved into the preheated dye solution in the incubator for 15 min and then washed three times with TL-HEPES-0.3% BSA for 10 min each time, the fluorescence intensity was detected by laser confocal microscopy, and the changes of mitochondrial temperature were analyzed.
# Metformin can effectively reduce mitochondrial heat production.
# vitrified oocytes [4] = assay: Mitochondrial temperature of vitrified oocytes after thawing (MTY probe); type: cell-based, porcine; settings: metformin pretreatment before freezing; P<0.01
# Description: as §1
# The room temperature was adjusted to 25±1° C. so that the test apparatus and reagents were fully balanced, the experiment was carried out on a 37° C. thermostat, the oocytes were transferred into 20% EG solution for 3 min, and then transferred into the vitrification solution EDFS40 for 30-40 s, the oocytes were then placed on the cryocarrier Cryotop. […]
# The effect of metformin pretreatment on the mitochondrial temperature of vitrified oocytes was further analyzed.
# porcine oocytes [5] = assay: Oocyte membrane fluidity detection by FRAP; type: cell-based; settings: metformin pretreatment; P<0.05
# Description: The membrane fluidity of oocytes was detected by fluorescence recovery after photobleaching (FRAP). The oocytes were first placed in TL-HEPES-0.3% BSA solution containing cell membrane fluorescent probe Dil, and incubated at 37° C. in the incubator containing 5% CO2 for 10 min. After incubation, the oocytes were washed three times within TL-HEPES-0.3% BSA solution, and then the oocytes were placed in a confocal dish. FRAP experiments were performed on a confocal microscope. Firstly, a bleaching area was selected, and three fluorescence images were collected before bleaching, with an interval of 5 s for each image. The bleaching fluorescence intensity was 100%, and the bleaching time was 7.93 s. Recovery time was 3 min after bleaching, and fluorescence images were collected at 5 s intervals. The fluorescence intensity of the bleaching area was statistically analyzed and the data were normalized.
# vitrified oocytes [6] = assay: Ultrastructural observation of lipid droplets in oocytes (TEM); type: cell-based, porcine; settings: metformin pretreatment
# Description: The oocytes were washed with DPBS and fixed overnight at 4° C. in a 0.1M dimethylarsenate buffer containing 2.5% (m/v) glutaraldehyde. After washing with DPBS, oocytes were fixed with 1% osmic acid, then washed with DPBS, and dehydrated in a gradient of 30%, 50%, 70%, 80%, 90%, and 100% acetone. The epoxy resin SPURR was used for embedding-polymerization, and the LKB-V slicing machine (ultra-thin slice thickness 50 nm (diamond knife)) was used for slicing, and then the double staining of uranium acetate-lead citrate was carried out on the copper mesh of the electron microscope, the copper mesh containing the sample was dried in a glass dish overnight, and the image was collected using a transmission electron microscope (TEM) at 80 kv (HITACHI, New Bio-TEM H-7500, Japan).
# [7] = 1 μM UK5099 vs control group, after parthenogenetic activation
# [8] = 2 μM UK5099 vs control group, after parthenogenetic activation
# [9] = UK5099 0.5 μM, 1 μM, 2 μM, 4 μM
# [10] = rotenone-treated group vs control group, after parthenogenetic activation, P<0.01
smiles,measurement,setting,value
N#C/C(=C\c1cn(-c2ccccc2)c2ccccc12)C(=O)O [UK5099],Survival rate (%),"[1]; UK5099 pretreatment before vitrification, P>0.05",67.50% and 67.50^b(135/200) %
same,blastocyst rate,porcine oocytes [2]; [7],not significantly different
same,cleavage rate,porcine oocytes [2]; [7],not significantly different
same,blastocyst rate,porcine oocytes [2]; [8],not significantly different
same,cleavage rate,porcine oocytes [2]; [8],not significantly different
same,"blastocyst rate, trend with concentration",porcine oocytes [2]; [9],decreased with the increase of UK5099 concentration
same,"cleavage rate, trend with concentration",porcine oocytes [2]; [9],decreased with the increase of UK5099 concentration
same,mitochondrial temperature,"porcine oocytes [3]; 1 μM UK5099 treatment for 1 h, P<0.05",significantly reduced
same,mitochondrial temperature,"porcine oocytes [3]; 2 μM UK5099 treatment for 1 h, P<0.01",significantly reduced
C=C(C)[C@H]1Cc2c(ccc3c2O[C@@H]2COc4cc(OC)c(OC)cc4[C@@H]2C3=O)O1 [rotenone],blastocyst development rate,porcine oocytes [2]; [10],significantly decreased
same,cleavage rate,porcine oocytes [2]; [10],significantly decreased
same,cytotoxicity,porcine oocytes [2]; summary statement on rotenone,greater cytotoxicity
same,mitochondrial temperature,"porcine oocytes [3]; 1 μM rotenone treatment for 1 h, P<0.01",significantly reduced
CN(C)C(=N)N=C(N)N [metformin],Survival rate (%),"[1]; pretreated with 400 μM metformin for 1 h before vitrification, P<0.05",81.36%
same,Survival rate (%),"[1]; pretreated with 400 μM metformin for 1 h before vitrification, P<0.05, listed as Metformin",81.36^c(179/330) %
same,mitochondrial temperature of vitrified oocytes after thawing,vitrified oocytes [4],significantly higher than that of the conventional freezing group
same,cleavage rate,"porcine oocytes [2]; metformin pretreatment group vs control group, after parthenogenetic activation, day 2",no significant difference
same,blastocyst development rate,"porcine oocytes [2]; metformin pretreatment group vs control group, after parthenogenetic activation, day 7",no significant difference
same,plasma membrane fluidity,porcine oocytes [5],significantly decreased
same,mitochondrial temperature,"porcine oocytes [3]; 400 μM metformin treatment for 1 h, P<0.05",significantly reduce mitochondrial temperature
same,size of lipid droplets in oocytes,vitrified oocytes [6],close to that of the fresh group
CC[C@H]1/C=C/C=C/C[C@@H](C)[C@H](O)[C@@](C)(O)C(=O)[C@@H](C)[C@H](O)[C@@H](C)C(=O)[C@@H](C)[C@H](O)[C@@H](C)/C=C/C(=O)O[C@@H]2[C@H](C)[C@H](CC1)O[C@]1(CC[C@H](C)[C@H](C[C@@H](C)O)O1)[C@H]2C [oligomycin],Survival rate (%),"[1]; oligomycin pretreatment before vitrification, P<0.05",29.79%
same,Survival rate (%),"[1]; oligomycin pretreatment before vitrification, P<0.05, listed as Oligomycin",29.79^c(56/188) %
same,blastocyst development rate,porcine oocytes [2]; 0.5 μM oligomycin vs control group,significantly lower
same,blastocyst development,"porcine oocytes [2]; 1.5 μM oligomycin vs control group, P<0.01",significantly lower
same,blastocyst development,"porcine oocytes [2]; 2.5 μM oligomycin vs control group, P<0.01",significantly lower
same,cleavage rate,"porcine oocytes [2]; different concentrations of oligomycin vs control group, parthenogenetic activation, P<0.01",significantly lower
same,mitochondrial temperature,"porcine oocytes [3]; 0.5 μM oligomycin treatment for 1 h, P<0.01",significantly reduce
same,mitochondrial temperature,"porcine oocytes [3]; 1.5 μM oligomycin treatment for 1 h, P<0.01",significantly reduce
same,mitochondrial temperature,"porcine oocytes [3]; 2.5 μM oligomycin treatment for 1 h, P<0.01",significantly reduce
